Measured values published in patent US20090030024A1, “THIAZOLES AS FUNGICIDES” (priority 2005, published 2009).
Marks after values point to notes of the source that are not given here.

Test: logP determination by retention times (calibration with alkan-2-ones)
Settings: for logP: HPLC, reversed-phase C 18, EEC Directive 79/831 Annex V.A8, method *: 40° C., 0.1% aqueous formic acid and acetonitrile, linear gradient 10% to 95% acetonitrile

SMILES	logP	chromatographic logP
CN(C)c1nc(C(F)(F)F)c(-c2ccnc(Nc3ccccc3)n2)s1 [Example 292, 4-[2-(dimethylamine)-4-(trifluoromethyl)-1,3-thiazol-5-yl]-N-phenylpyrimidine-2-amine]	3.88*	
COc1cccc(Nc2nccc(-c3sc(N(C)C)nc3C)n2)c1 [Example 293, 4-[2-(dimethylamine)-4-methyl-1,3-thiazol-5-yl]-N-(3-methoxyphenyl)pyrimidine-2-amine]	1.98*	
Cc1cc(Nc2nccc(-c3sc(N(C)C)nc3C)n2)ccc1F [Example 294, 4-[2-(dimethylamine)-4-methyl-1,3-thiazol-5-yl]-N-(4-fluoro-3-methylphenyl)pyrimidine-2-amine]	2.22*	
COCc1nc(C)c(-c2ccnc(Nc3cc(OC)c(OC)c(OC)c3)n2)s1 [Example 295, 4-[2-(methoxymethyl)-4-methyl-1,3-thiazol-5-yl]-N-(3,4,5-trimethoxyphenyl)pyrimidine-2-amine]		2.36
COCc1nc(C)c(-c2ccnc(Nc3cccc(OC)c3)n2)s1 [Example 296, 4-[2-(methoxymethyl)-4-methyl-1,3-thiazol-5-yl]-N-(3-methoxyphenyl)pyrimidine-2-amine]		2.67
COCc1nc(C)c(-c2ccnc(Nc3ccc(OC)nc3)n2)s1 [Example 298, 4-[2-(methoxymethyl)-4-methyl-1,3-thiazol-5-yl]-N-(6-methoxypyridin-3-yl)pyrimidine-2-amine]		2.13
COCc1nc(C)c(-c2ccnc(Nc3cccc(C(F)(F)F)c3)n2)s1 [Example 299, 4-[2-(methoxymethyl)-4-methyl-1,3-thiazol-5-yl]-N-[3-(trifluoromethyl)phenyl]pyrimidine-2-amine]		3.41
COCc1nc(C)c(-c2ccnc(Nc3ccc(C(F)(F)F)cc3)n2)s1 [Example 300, 4-[2-(methoxymethyl)-4-methyl-1,3-thiazol-5-yl]-N-[4-(trifluoromethyl)phenyl]pyrimidine-2-amine]		3.59
COCc1nc(C)c(-c2ccnc(Nc3ccccc3)n2)s1 [Example 301, 4-[2-(methoxymethyl)-4-methyl-1,3-thiazol-5-yl]-N-phenylpyrimidine-2-amine]		3.01
COc1cc(Nc2nccc(-c3sc(C)nc3C(F)(F)F)n2)cc(OC)c1OC [Example 310, 4-[2-methyl-4-(trifluoromethyl)-1,3-thiazol-5-yl]-N-(3,4,5-trimethoxyphenyl)pyrimidine-2-amine]		3.02
Cc1nc(C(F)(F)F)c(-c2ccnc(Nc3cccc([N+](=O)[O-])c3)n2)s1 [Example 311, 4-[2-methyl-4-(trifluoromethyl)-1,3-thiazol-5-yl]-N-(3-nitrophenyl)pyrimidine-2-amine]		3.5
Cc1nc(C(F)(F)F)c(-c2ccnc(Nc3ccccc3)n2)s1 [Example 312, 4-[2-methyl-4-(trifluoromethyl)-1,3-thiazol-5-yl]-N-phenylpyrimidine-2-amine]		3.45
CNc1nc(C)c(-c2ccnc(Nc3cc(OC)c(OC)c(OC)c3)n2)s1 [Example 313, 4-[4-methyl-2-(methylamine)-1,3-thiazol-5-yl]-N-(3,4,5-trimethoxyphenyl)pyrimidine-2-amine]	1.53*	
CNc1nc(C)c(-c2ccnc(Nc3ccccc3)n2)s1 [Example 315, 4-[4-methyl-2-(methylamine)-1,3-thiazol-5-yl]-N-phenylpyrimidine-2-amine]	1.61*	
COc1cc(Nc2nccc(-c3sc(SC)nc3C)n2)cc(OC)c1OC [Example 316, 4-[4-methyl-2-(methylthio)-1,3-thiazol-5-yl]-N-(3,4,5-trimethoxyphenyl)pyrimidine-2-amine]		2.76
CSc1nc(C)c(-c2ccnc(Nc3ccc(C(F)(F)F)cc3)n2)s1 [Example 317, 4-[4-methyl-2-(methylthio)-1,3-thiazol-5-yl]-N-[4-(trifluoromethyl)phenyl]pyrimidine-2-amine]		4.37
CSc1nc(C)c(-c2ccnc(Nc3ccccc3)n2)s1 [Example 318, 4-[4-methyl-2-(methylthio)-1,3-thiazol-5-yl]-N-phenylpyrimidine-2-amine]		3.34
Cc1nc(N)sc1-c1ccnc(Nc2ccc(O)cc2)n1 [Example 323, 4-{[4-(2-amino-4-methyl-1,3-thiazol-5-yl)pyrimidin-2-yl]amino}phenol]		0.93
CCc1nc(C)c(-c2ccnc(Nc3ccc(C(=O)O)cc3)n2)s1 [Example 325, 4-{[4-(2-ethyl-4-methyl-1,3-thiazol-5-yl)pyrimidin-2-yl]amino}benzoic acid]		2.16
COCC(C)Nc1nc(C)c(-c2ccnc(Nc3cc(OC)c(OC)c(OC)c3)n2)s1 (stereo not shown) [Example 332, 4-{2-[(2-methoxy-1-methylethyl)amino]-4-methyl-1,3-thiazol-5-yl}-N-(3,4,5-trimethoxyphenyl)pyrimidine-2-amine]		1.85

SMILES	logP	chromatographic logP
COCC(C)Nc1nc(C)c(-c2ccnc(Nc3cccc(OC)c3)n2)s1 (stereo not shown) [Example 333, 4-{2-[(2-methoxy-1-methylethyl)amino]-4-methyl-1,3-thiazol-5-yl}-N-(3-methoxyphenyl)pyrimidine-2-amine]		2.03
COCC(C)Nc1nc(C)c(-c2ccnc(Nc3cccc([N+](=O)[O-])c3)n2)s1 (stereo not shown) [Example 334, 4-{2-[(2-methoxy-1-methylethyl)amino]-4-methyl-1,3-thiazol-5-yl}-N-(3-nitrophenyl)pyrimidine-2-amine]		2.2
Cc1nc(N(C)C2CC2)sc1-c1ccnc(Nc2ccccc2)n1 [Example 341, 4-{2-[cyclopropyl(methyl)amino]-4-methyl-1,3-thiazol-5-yl}-N-phenylpyrimidine-2-amine]		2.43
COc1cc(Nc2nccc(-c3sc(NCC4CCCO4)nc3C)n2)cc(OC)c1OC (stereo not shown) [Example 354, 4-{4-methyl-2-[(tetrahydrofuran-2-ylmethyl)amino]-1,3-thiazol-5-yl}-N-(3,4,5-trimethoxyphenyl)pyrimidine-2-amine]		1.8
Cc1nc(NCC2CCCO2)sc1-c1ccnc(Nc2cccc([N+](=O)[O-])c2)n1 (stereo not shown) [Example 355, 4-{4-methyl-2-[(tetrahydrofuran-2-ylmethyl)amino]-1,3-thiazol-5-yl}-N-(3-nitrophenyl)pyrimidine-2-amine]		2.13
Cc1nc(NCC2CCCO2)sc1-c1ccnc(Nc2ccccc2)n1 (stereo not shown) [Example 356, 4-{4-methyl-2-[(tetrahydrofuran-2-ylmethyl)amino]-1,3-thiazol-5-yl}-N-phenylpyrimidine-2-amine]		1.87
Cc1nc(N(C)c2ccccc2)sc1-c1ccnc(Nc2ccccc2)n1 [Example 357, 4-{4-methyl-2-[methyl(phenyl)amino]-1,3-thiazol-5-yl}-N-phenylpyrimidine-2-amine]		3.21
Cc1nc(C(=O)N(C)C)sc1-c1ccnc(Nc2ccccc2)n1 [Example 373, 5-(2-anilinopyrimidin-4-yl)-N,N,4-trimethyl-1,3-thiazole-2-carboxamide]		2.72
CCOC(=O)c1cccc(Nc2nccc(-c3sc(C4CC4)nc3C)n2)c1 [Example 374, ethyl-3-{[4-(2-cyclopropyl-4-methyl-1,3-thiazol-5-yl)pyrimidin-2-yl]amino}benzoate]		3.56
COC(=O)Nc1ccc(Nc2nccc(-c3sc(C)nc3C)n2)cc1 [Example 380, methyl-(4-{[4-(2,4-dimethyl-1,3-thiazol-5-yl)pyrimidin-2-yl]amino}phenyl)carbamate]		1.84
Cc1nc(C)c(-c2ccnc(Nc3ccc4c(c3)OCCO4)n2)s1 [Example 387, N-(2,3-dihydro-1,4-benzodioxin-6-yl)-4-(2,4-dimethyl-1,3-thiazol-5-yl)pyrimidine-2-amine]		2.34
CCc1nc(C)c(-c2ccnc(Nc3ccc4c(c3)OCCO4)n2)s1 [Example 388, N-(2,3-dihydro-1,4-benzodioxin-6-yl)-4-(2-ethyl-4-methyl-1,3-thiazol-5-yl)pyrimidine-2-amine]		2.7
Cc1nc(C(C)C)sc1-c1ccnc(Nc2ccc3c(c2)OCCO3)n1 [Example 389, N-(2,3-dihydro-1,4-benzodioxin-6-yl)-4-(2-isopropyl-4-methyl-1,3-thiazol-5-yl)pyrimidine-2-amine]		3.16
COCc1nc(C)c(-c2ccnc(Nc3ccc4c(c3)OCCO4)n2)s1 [Example 390, N-(2,3-dihydro-1,4-benzodioxin-6-yl)-4-[2-(methoxymethyl)-4-methyl-1,3-thiazol-5-yl]pyrimidine-2-amine]		2.49
COc1ccc(OC)c(Nc2nccc(-c3sc(C)nc3C)n2)c1 [Example 391, N-(2,5-dimethoxyphenyl)-4-(2,4-dimethyl-1,3-thiazol-5-yl)pyrimidine-2-amine]		3.03
Cc1nc(C(C)C)sc1-c1ccnc(Nc2ccc(F)c(F)c2)n1 [Example 401, N-(3,4-difluorophenyl)-4-(2-isopropyl-4-methyl-1,3-thiazol-5-yl)pyrimidine-2-amine]		3.95
COc1ccc(Nc2nccc(-c3sc(C)nc3C)n2)cc1OC [Example 403, N-(3,4-dimethoxyphenyl)-4-(2,4-dimethyl-1,3-thiazol-5-yl)pyrimidine-2-amine]		2.16
COCc1nc(C)c(-c2ccnc(Nc3ccc(OC)c(OC)c3)n2)s1 [Example 404, N-(3,4-dimethoxyphenyl)-4-[2-(methoxymethyl)-4-methyl-1,3-thiazol-5-yl]pyrimidine-2-amine]		2.23
COc1ccc(Nc2nccc(-c3sc(SC)nc3C)n2)cc1OC [Example 405, N-(3,4-dimethoxyphenyl)-4-[4-methyl-2-(methylthio)-1,3-thiazol-5-yl]pyrimidine-2-amine]		2.78
COc1cc(Nc2nccc(-c3sc(C)nc3C)n2)cc(OC)c1 [Example 406, N-(3,5-dimethoxyphenyl)-4-(2,4-dimethyl-1,3-thiazol-5-yl)pyrimidine-2-amine]		2.64
